“And” between values parts separate entries of the source, which are not always exact repeats. Identical values can stand only once. Like-named read-outs stand apart in the source and are kept apart here.
Legend:
[1] = test system: concatameric homotetrameric CNGA2 channels with three disabled subunits; set-up: method as in PMID 26858151; conditions: read-out: EC50 of one CNGA2 subunit; cited from earlier work
CNGA2RE:A4RE:B1b [2] = biological target: T1, CNGA2RE:A4RE:B1b (Rattus norvegicus, UniProt A0A8I5ZN27+Q00195+Q64359, R430E/R538E); assay: Concentration-activation relationship and activation by fluorescent ligands, patch-clamp; type: biochemical
T1 construct: expressed in transfected cells; host or cells: Xenopus laevis oocytes (cRNA injection), excised inside-out patches
Procedure: (§1) In order to determine the apparent affinity of the modulatory subunits in heterotetrameric CNGA2:A4:B1b channels for cGMP, we coexpressed each of them with disabled neighbored subunits, generating themselves activation effects only at much higher ligand concentrations. In case of two well-separated current components, this would allow us to determine the EC50 value for the CNGB1b and CNGA4 subunit in functional heterotetrameric channels. Patch-clamp experiments were performed using an Axopatch 200B amplifier (Molecular Devices LLC, CA, U.S.A.) in the inside-out configuration. The patch pipettes for recording of macroscopic currents were pulled from borosilicate glass tubing (outer diameter 2.0 mm, inner diameter 1.0 mm; Hilgenberg GmbH, Germany). […] The patches were formed as pushed inside-out patches. […] Cyclic nucleotide concentration jumps were performed using a double-barreled glass pipette mounted on a piezo-driven device. Intracellular (bath) and extracellular (pipette) solutions contained (mM) 150 KCl, 1 EGTA, 5 Hepes, pH = 7.4 with KOH. […] Currents in the absence of the cyclic nucleotide were subtracted. All patches included in this study were first tested for channel expression in the presence of a saturating ligand concentration. Only patches with large current, i.e. a large number of channels, were included in our statistics. The currents were measured at +10 mV or, if mentioned, at +100 mV. Fits of equations to data points were performed with the 8.1G® software (OriginLab Corporation, Northampton, U.S.A.). Concentration-activation relationships were obtained by relating the actual current amplitude, I, to the maximum current amplitude elicited by a saturating concentration of ligand, Imax, and plotting this ratio as function of the ligand concentration, x.

[3] = biological target: T2, homotetrameric CNGA2 channels (Rattus norvegicus, UniProt Q00195); assay: Concentration-activation relationship, inside-out patch-clamp, Xenopus oocytes; type: biochemical
T2 construct: expressed in transfected cells; host or cells: Xenopus laevis oocytes (cRNA injection), excised inside-out patches
Procedure: as §1, with “Patch-clamp” for “In order to determine the apparent affinity of the modulatory subunits in heterotetrameric CNGA2:A4:B1b channels for cGMP, we coexpressed each of them with disabled neighbored subunits, generating themselves activation effects only at much higher ligand concentrations. In case of two well-separated current components, this would allow us to determine the EC50 value for the CNGB1b and CNGA4 subunit in functional heterotetrameric channels. Patch-clamp”, “x. […]” for “x.”

[4] = test system: homotetrameric CNGA2TM (T539M) channels; conditions: cited from earlier work
CNGA2TM:A4RE = test system: CNGA2TM:A4RE; set-up: method as in Nache et al., 2012; key: +: ligand binding to the respective modulatory subunits was either observed or not; −: ligand binding to the respective modulatory subunits was either observed or not; conditions: 10 μM; construct CNGA2TM:A4RE; ref Nache et al., 2012; cited from earlier work
CNGA2TM:A4 = biological target: T3, CNGA2TM:A4 (Rattus norvegicus, UniProt Q00195+Q64359, T539M); assay: Ligand binding, confocal patch-clamp fluorometry; set-up: key: +: ligand binding to the respective modulatory subunits was either observed or not; −: ligand binding to the respective modulatory subunits was either observed or not; conditions: 10 μM; construct CNGA2TM:A4
T3 construct: expressed in transfected cells; host or cells: Xenopus laevis oocytes (cRNA injection), excised patches
From the text: (§2) The channels to be studied were expressed in Xenopus oocytes. We first tested the subunit composition in our channels when coexpressing different combinations of subunits by single-channel recordings. For CNGA2:A4, CNGA2:B1b and CNGA2:A4:B1b channels we exclusively obtained the specific and easily distinguishable single-channel activity reported earlier when injecting respective amounts of RNA[7][13]. We therefore assumed that the channels formed had always the expected subunit composition. The specific binding of cyclic nucleotides and the activation of the CNG channels were measured in parallel by means of confocal patch-clamp fluorometry in excised patches, using fluorescent cyclic nucleotide derivatives. The method has been described previously.
(§3) The ligand binding was measured in macropatches by patch-clamp fluorometry[41][42] combined with confocal microscopy. […] Recordings were performed with an LSM 510 or 710 confocal microscope (Zeiss, Jena, Germany) and were triggered by the ISO3 software (MFK, Niedernhausen, Germany). To distinguish between the fluorescence of the unbound ligands from that of the bound ligands, a second dye, DY647 (Dyomics, Jena, Germany), was added to the bath solution. The 543-nm and 633-nm lines of a He-Ne laser were used to excite fcAMP/fcGMP and DY647, respectively. The method of confocal patch-clamp fluorometry has been described in detail previously.

CNGA2RE:A4RE:B1b [5] = biological target: T1, CNGA2RE:A4RE:B1b; assay: Ligand binding, confocal patch-clamp fluorometry; set-up: key to Ligand binding to CNGA4 / Ligand binding to CNGB1b: +: ligand binding to the respective modulatory subunits was either observed or not; −: ligand binding to the respective modulatory subunits was either observed or not
From the text: as §2
To verify the hypothesis that the CNGB1b subunit in CNGA2:A4:B1b channels binds cyclic nucleotides, we coexpressed CNGB1b with CNGA4RE and either CNGA2RE or CNGA2TM and measured ligand binding in the presence of 10 μM fcGMP. […] To verify the specificity of the binding to the CNGB1b subunit in these heterotetrameric channels, we coexpressed the CNGB1bRE subunit with CNGA2RE and CNGA4RE.
as §3

[6] = 10 μM, construct CNGA2RE:A4RE:B1b

T1 sequence (Q00195 whole entry R538E): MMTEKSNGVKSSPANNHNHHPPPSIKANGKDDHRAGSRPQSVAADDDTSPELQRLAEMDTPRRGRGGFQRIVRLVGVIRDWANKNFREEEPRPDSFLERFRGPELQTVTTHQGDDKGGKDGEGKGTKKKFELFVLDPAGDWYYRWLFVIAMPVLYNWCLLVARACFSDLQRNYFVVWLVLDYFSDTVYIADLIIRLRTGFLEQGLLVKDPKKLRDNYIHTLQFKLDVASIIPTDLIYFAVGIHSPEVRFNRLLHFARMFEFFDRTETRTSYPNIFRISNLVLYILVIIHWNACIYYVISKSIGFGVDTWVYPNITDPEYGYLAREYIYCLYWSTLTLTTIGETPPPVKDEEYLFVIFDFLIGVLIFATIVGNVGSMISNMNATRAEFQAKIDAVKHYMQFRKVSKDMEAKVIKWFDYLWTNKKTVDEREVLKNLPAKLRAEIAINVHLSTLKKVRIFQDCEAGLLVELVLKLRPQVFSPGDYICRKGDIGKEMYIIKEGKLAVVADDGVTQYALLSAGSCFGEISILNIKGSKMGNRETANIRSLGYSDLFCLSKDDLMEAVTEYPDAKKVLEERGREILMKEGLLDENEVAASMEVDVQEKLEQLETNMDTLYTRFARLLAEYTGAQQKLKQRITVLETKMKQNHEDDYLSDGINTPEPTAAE
T1 sequence (Q64359 whole entry R430E): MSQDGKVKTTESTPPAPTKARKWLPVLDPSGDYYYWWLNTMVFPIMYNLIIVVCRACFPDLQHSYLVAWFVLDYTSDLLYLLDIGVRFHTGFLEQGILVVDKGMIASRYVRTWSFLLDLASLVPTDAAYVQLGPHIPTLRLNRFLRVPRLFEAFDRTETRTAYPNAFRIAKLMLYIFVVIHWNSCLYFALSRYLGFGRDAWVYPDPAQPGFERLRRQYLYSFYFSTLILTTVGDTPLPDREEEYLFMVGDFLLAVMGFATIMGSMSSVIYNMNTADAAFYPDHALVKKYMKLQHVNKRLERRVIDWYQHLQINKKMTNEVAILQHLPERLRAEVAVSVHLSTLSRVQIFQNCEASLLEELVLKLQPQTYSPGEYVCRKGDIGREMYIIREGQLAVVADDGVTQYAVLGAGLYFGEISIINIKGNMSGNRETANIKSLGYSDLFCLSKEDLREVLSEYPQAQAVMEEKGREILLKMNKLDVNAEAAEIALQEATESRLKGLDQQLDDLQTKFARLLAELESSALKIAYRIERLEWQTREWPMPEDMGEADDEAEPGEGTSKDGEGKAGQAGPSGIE
T1 sequence (A0A8I5ZN27 1-858 isoform A0A8I5ZN27-2, stated change not applied): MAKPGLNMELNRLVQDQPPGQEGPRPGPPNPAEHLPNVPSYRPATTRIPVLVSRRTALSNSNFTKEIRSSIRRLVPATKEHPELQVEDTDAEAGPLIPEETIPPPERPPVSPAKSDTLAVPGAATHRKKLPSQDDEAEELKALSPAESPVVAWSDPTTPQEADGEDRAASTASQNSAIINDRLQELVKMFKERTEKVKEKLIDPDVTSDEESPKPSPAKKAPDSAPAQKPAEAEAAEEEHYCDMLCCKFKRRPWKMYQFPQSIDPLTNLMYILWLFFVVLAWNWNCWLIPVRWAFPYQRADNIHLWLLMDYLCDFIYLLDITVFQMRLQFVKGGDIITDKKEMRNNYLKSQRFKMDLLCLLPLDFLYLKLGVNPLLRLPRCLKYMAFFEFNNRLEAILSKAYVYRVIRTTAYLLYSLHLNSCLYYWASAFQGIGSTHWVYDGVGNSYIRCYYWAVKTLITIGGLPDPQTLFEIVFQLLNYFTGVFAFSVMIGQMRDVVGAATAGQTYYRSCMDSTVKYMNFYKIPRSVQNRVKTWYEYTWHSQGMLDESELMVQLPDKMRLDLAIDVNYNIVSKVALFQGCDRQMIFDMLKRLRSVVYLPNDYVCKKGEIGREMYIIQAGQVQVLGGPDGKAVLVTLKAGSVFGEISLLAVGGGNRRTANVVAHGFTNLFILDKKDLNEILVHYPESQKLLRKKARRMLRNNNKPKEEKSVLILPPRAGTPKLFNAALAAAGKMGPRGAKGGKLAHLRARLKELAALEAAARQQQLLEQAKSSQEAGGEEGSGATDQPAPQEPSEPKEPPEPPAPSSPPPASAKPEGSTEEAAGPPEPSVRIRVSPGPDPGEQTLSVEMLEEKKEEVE
T2 sequence (Q00195 whole entry): as the sequence (Q00195 whole entry R538E) above, with E538R counted along it
T3 sequence (Q00195 whole entry T539M): as the sequence (Q00195 whole entry R538E) above, with E538R, T539M counted along it
T3 sequence (Q64359 whole entry): as the sequence (Q64359 whole entry R430E) above, with E430R counted along it

Row | Compound | EC50 [1] [µM] | H1 (CNGA2RE:A4RE:B1b [2]; Hill coefficient of low affinity component, CNGA2RE:A4RE:B1b, +100 mV) | a (contribution of the high affinity component) (CNGA2RE:A4RE:B1b [2]; fraction, CNGA2RE:A4RE:B1b, Equation 2) | EC50 (CNGA2RE:A4RE:B1b [2]; high affinity component (action of CNGB1b), CNGA2RE:A4RE:B1b, Equation 2, +100 mV, read-out: EC50,h) [µM] | EC50 (CNGA2RE:A4RE:B1b [2]; low affinity component, CNGA2RE:A4RE:B1b, Equation 2, +100 mV, read-out: EC50,l) [µM] | maximum contribution of CNGB1b to channel activation (a) (CNGA2RE:A4RE:B1b [2]; of the maximum channel activity generated by all subunits, CNGA2RE:A4RE:B1b) | H ([3]; Hill coefficient, Equation 1) | EC50 ([3]; fit with Equation 1) [µM] | EC50 ([4]; CNGA2TM, Equation 1, ref Nache et al., 2012) [µM] | Ligand binding to CNGA4 (CNGA2TM:A4RE) | activation (I/Imax) (CNGA2RE:A4RE:B1b [2]; 10 μM fcGMP, normalized to current at 4 mM cGMP) [%] | Ligand binding to CNGA4 (CNGA2TM:A4) | binding to the CNGB1b subunit (in words) (CNGA2RE:A4RE:B1b [5]; 10 μM fcGMP, CNGB1b with CNGA4RE and CNGA2RE) | Ligand binding to CNGA4 (CNGA2RE:A4RE:B1b [5]; [6]) | Ligand binding to CNGB1b (CNGA2RE:A4RE:B1b [5]; [6]) | activation ([4]; 10 μM fcGMP, homotetrameric CNGA2TM)
1 | Nc1nc2c(ncn2[C@@H]2O[C@@H]3COP(=O)(O)O[C@H]3[C@H]2O)c(=O)[nH]1 [cGMP] | 22.2 | 1.2 | 0.07 | 3.6 | 178 | 7.2% and ~ 7% | 1.9 | 1.74 | 10.4 |  |  |  |  |  |  | 
2 | 8-[DY-547]-AET-cGMP [fcGMP] |  |  |  |  |  |  |  |  |  | − | 1.6 ± 0.4 | + | robust binding | − | + | negligible activation

— article PMC4942689, “Deciphering the function of the CNGB1b subunit in olfactory CNG channels” (Scientific Reports, 2016)
